# Measurements published in US20260183297A1, “SELECTION OF PATIENTS FOR THE TREATMENT OF FADS1-MEDIATED DISEASES OR DISORDERS USING FADS-1 INHIBITORS” (AMGEN INC., priority 2022, published 2026).
# Like-named read-outs stand apart in the source and are kept apart here.
# Target: T1, FADS1 (Mus musculus, UniProt Q920L1)
# T1 construct: Liver from ^13C5-DGLA dosed DIO mice was collected for pharmacodynamic (PD) analysis; from tissue; host or cells: living DIO C57Bl/6 mice; 13C5-DGLA to 13C5-AA conversion read in liver (A4) or blood plasma (A5)
# T1 sequence (Q920L1 1-447): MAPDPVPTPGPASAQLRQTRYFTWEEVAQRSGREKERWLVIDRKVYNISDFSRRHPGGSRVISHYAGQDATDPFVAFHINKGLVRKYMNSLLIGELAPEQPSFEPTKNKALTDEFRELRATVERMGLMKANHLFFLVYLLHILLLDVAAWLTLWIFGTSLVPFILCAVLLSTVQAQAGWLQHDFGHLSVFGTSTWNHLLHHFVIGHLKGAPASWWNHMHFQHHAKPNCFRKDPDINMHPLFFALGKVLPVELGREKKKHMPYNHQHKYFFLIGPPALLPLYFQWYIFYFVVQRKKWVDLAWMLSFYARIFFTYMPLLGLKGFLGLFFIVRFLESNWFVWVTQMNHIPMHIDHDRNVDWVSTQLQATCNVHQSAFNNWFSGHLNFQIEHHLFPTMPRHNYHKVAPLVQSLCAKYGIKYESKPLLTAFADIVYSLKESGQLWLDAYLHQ
# Experiment: In vivo FADS1 activity measurement using the liver (13C5-DGLA to 13C5-AA conversion)
# Settings: for IC50: liver of DIO mice, unbound plasma concentration, read-out: Free (unbound) in vivo IC50
# Description: Mice were then dosed by intraperitoneal injection with a solution comprising of a mixture of 0.1 ml solution of ^13C5-DGLA (2 mM in 18.42 mM Na2CO3 buffer). Necropsy were performed at 30 minutes post ^13C5-DGLA dosing. Liver from ^13C5-DGLA dosed DIO mice was collected for pharmacodynamic (PD) analysis and EDTA plasma was collected for compound exposure determination. For PD analysis, 150 mg of frozen liver tissue were premixed with ALA-D14 as an internal standard. Liver samples were homogenized and extracted twice with chloroform/methanol (2:1) solution. The organic phases for the two extractions were pooled and evaporated to dryness under nitrogen gas. The liver extract was resuspended in 200 μl 2N NaOH and saponified at 65° C. for 1 hour. After cooling to room temperature, 100 μl of formic acid was added and the mixture was subjected to two consecutive extractions with a chloroform:methanol (2:1) solution. The pooled organic phases were evaporated to dryness under nitrogen gas and resuspended in a solution containing acetonitrile and methanol at a ratio of 1:1. The extracts were then analyzed by LC/MS/MS for the following analytes: ^13C5-DGLA, ^13C5-AA, with ALA-d14 as the internal standard. The sample (20 μl) was injected onto a Poroshell 120 EC-C18 3.0×50 mm, 1.9 μm id column (Agilent, Santa Clara, CA). The analyte peak areas were quantified using the Analyst software (SCIEX, Framingham, […]). The residual in vivo FADS1 activity was calculated by taking the percent of substrate to product conversion normalized to the vehicle group to determine the percent of control (POC) and the percent inhibition relative to control (vehicle).
# To determine the degree of FADS1 inhibition, the in vivo FADS1 activity as the percent of conversion calculated using the following equation: […]
# The data were then normalized to the vehicle group to determine the percent of inhibition relative to control (vehicle) by the following equation: […]
# To calculate the in vivo potency, dose response graphs were generated by plotting the plasma concentration of the test compound determined from the PK analysis on the abscissa, against the percent of control (POC, relative to vehicle) of the FADS1 activity for each mouse. The data points were then fitted by using the log(inhibitor) vs response nonlinear regression algorithm using GraphPad Prism (version 8.4.3, San Diego CA) to calculate the in vivo IC50 (total).
# Free (unbound) IC50 and IC90 values were calculated by first calculating the unbound compound concentration in the plasma by multiplying the plasma concentration of test compound with the fraction unbound (fu) value in mouse plasma determined in the plasma protein binding study. A dose response curve was used to determine the unbound IC50 and IC90 by plotting the unbound plasma concentration of the compound on the abscissa, against the percent of control (POC, relative to vehicle) of FADS1 activity for each mouse. The data points were then fitted with a log (inhibitor) versus response nonlinear regression algorithm using GraphPad Prism (version 8.4.3, San Diego, CA) to calculate the in vivo IC50 (Free).
# [1] = DIO mice, single oral dose 10 mg/kg, 24 hours after dosing
# [2] = DIO mice, single oral dose 30 mg/kg, 24 hours after dosing
# [3] = mouse, DIO mice, single oral dose 10 mg/kg, 24 hours after dosing, read-out: Liver Avg % Inhibition
# [4] = mouse, DIO mice, single oral dose 30 mg/kg, 24 hours after dosing, read-out: Liver Avg % Inhibition
"Liver Avg % Conversion (DIO mice, single oral dose 3 mg/kg, 24 hours after dosing) [%]",Liver Avg % Conversion [1] [%],Liver Avg % Conversion [2] [%],IC50 [nM],"inhibition at 3 mg/kg (mouse, DIO mice, single oral dose 3 mg/kg, 24 hours after dosing) [%]",inhibition at 10 mg/kg [3] [%],inhibition at 30 mg/kg [4] [%],"Liver Avg % Conversion (DIO mice, single oral dose 50 mg/kg, 24 hours after dosing) [%]","inhibition at 50 mg/kg (mouse, DIO mice, single oral dose 50 mg/kg, 24 hours after dosing) [%]","inhibition at 10 mg/kg (mouse, DIO mice, 10 mg/kg daily oral, after 54 days of treatment, read-out: FADS1 activity inhibited (residual liver FADS1 activity)) [%]","inhibition at 30 mg/kg (mouse, DIO mice, 30 mg/kg daily oral, after 54 days of treatment, read-out: FADS1 activity inhibited (residual liver FADS1 activity)) [%]",SMILES
14.2,4.3,1.5,4,83,94.8,98.2,–,–,–,–,N#Cc1ccn2c(=O)c(-c3cnn(CC(F)(F)C(F)(F)F)c3)c(C(F)(F)F)nc2c1 [Compound C]
–,2.2,1.5,4,–,97.4,98.2,1.4,98.3,–,–,COc1ccn2c(=O)c(-c3cnn(CC(F)(F)C(F)(F)F)c3)c(C(F)(F)F)nc2n1 [Compound B]
–,–,–,2,–,–,–,–,–,90,93.6,"COc1ccn2c(=O)c(-c3cnn(CC(F)(F)C(F)(F)F)c3)c(C(F)(F)F)nc2c1 [Compound A, 8-methoxy-3-(1-(2,2,3,3,3-pentafluoropropyl)-1H-pyrazol-4-yl)-2-(trifluoromethyl)-4H-pyrido[1,2-a]pyrimidin-4-one]"
